Test results as given in patent publication US9737523B2, “Anti-fibrogenic compounds, methods and uses thereof” (priority 2013, dated 2017).

How the values were obtained:
ERK1/2 [1] = assay: Human phospho-kinase array in dermal fibroblasts; format: cell-based; conditions: 100 μg/ml, after 1 hour of treatment
Description: Protein phosphorylation was evaluated using the Human Phospho-Kinase Array™ (R&D System™) according to the manufacturer's instructions. Briefly, capture and control antibodies were spotted in duplicate on nitrocellulose membranes (total 46 kinase phosphorylation sites). Cell lysates (300 μg of total protein per array) were incubated with array overnight. The array was washed to remove unbound proteins, followed by incubation with the cocktail of biotinylated detection antibodies. After incubation with streptavidin-HPR for 30 minutes, signals were visualized by ECL detection system (Santa Cruz™). Blots were analyzed by densitometry, and protein Phosphorylation was Normalized to a Positive Control which was Represented in Each Membrane.

rabbit ear wounds = assay: Rabbit ear hypertrophic scar model, topical application; format: in vivo
Description: Female rabbits (New Zealand white) weighing 4.5-5 kg were used for this study. The protocol was reviewed and approved by the University of British Columbia animal care committees. The rabbit ear model of hypertrophic scar was created as described previously (Rahmani-Neishaboor, et al., 2010). Briefly, 2 rabbits were anesthetized by intramuscular injection of ketamine (22.5 mg/kg) and xylazine (2.5 mg/kg) followed by isoflurane gas through tracheal intubation. Four wounds were created down to bare cartilage on the ventral side of each ear using an 8-mm dermal biopsy punch to remove full-thickness sections of skin. Antibiotics were applied on wounds daily until kynurenine treatment was started.
Kynureine in CMC gel (Rahmani-Neishaboor et al., 2010) with a concentration of 500 μg/ml was applied topically to the wounds of the experimental group (0.1 ml per wound) daily for 3 weeks starting at 1 week post wounding. The wounds of the control group were received the treatment with an equal amount of cream alone daily.
Animals were sacrificed on weeks 3 after treatments. Scars (10 mm punch biopsies) were harvested. Each scar was sectioned in two along its longitudinal axis and half of which was processed for routine histological analysis and another half was kept at −80° C. for future use.
Scar elevation was quantified by measuring Scar Elevation Index (SEI) from the H & E stained tissue section. The SEI is a ratio of total height in the wound tissue to the normal tissue below the hypertrophic scar.
According to a method previously reported (Gawronskao-Kozak B. et al. 2006), half of 8 mm diameter skin punches were weighed and frozen in −80° C. Skins were homogenized in 2 ml of PBS and stored at 4° C. overnight. The next day, 1 ml of 6N HCl was added and the mixture was heated at 120° C. for 5 hours. 20 μl of cooled samples and 50 μl of chloramine T solution were added to the 96-well plate and incubated at room temperature for 20 minutes. 50 μl of Erlich solution was then added and the mixture was incubated at 65° C. for 15 minutes. Absorbance was read at 570 nm. Hydroxyproline concentration was calculated by a standard curve.
RNA was extracted by Trizol™ (Invitrogen Life Technologies™). Briefly, 1 ml of Trizol™ was added to the homogenized skin tissue. 250 μl of chloroform was added after the mixture was standed at room temperature for 5 minutes. Top aqueous phase was transferred into a new eppendorf tube after centrifugation for 10 minute at 20,000×g. Equal volume isopropanol was added to the aqueous phase and mixed gently. The pellet was washed with 1 ml of 75% ethanol after centrifugation for 20 minutes. RNA was dissolved in DEPC treated H2O and its concentration was measured by Nanodrop2000™. cDNA was synthesized by cDNA synthesis kit from Roche according to manufacture's introduction using 1 μg of total RNA in each sample. Quantitative real-time PCR for rabbit type-1 α1 collagen, MMP-1 and housekeeper gene β-actin were performed in ViiA7 (Invitrogen™). cDNA samples were added to a PCR reaction master mix containing STBR Green Master Mix™ (Rox) (Roche™, Indianapolis, Ind.). All reactions were performed in duplicate using the following cycle conditions: 1 cycle of 95° C. for 10 minutes, 40 cycles of 95° C. for 15 seconds and 60° C. for 1 minute. The expression level of type-1 α1 collagen and MMP-1 in each sample was normalised to β-actin. RT-PCR primers: rabbit type-1 α1 collagen: 5′-[…]-3′ (Forward), 5′-[…]-3′ (Reverse); MMP-1,5′-[…]-3′ (Forward), 5′-[…]-3′ (Reverse); β-actin, 5′-[…]-3′ (Forward), 5′-[…]-3′(Reverse).

ERK1/2 [2] = assay: ERK1/2 phosphorylation in dermal fibroblasts, Western blot; format: cell-based, human; conditions: 100 μg/ml
Description: Cells were harvested by Trypsin/EDTA and lysed with cell lysis buffer containing 50 mM Tris-HCl (pH7.40), 150 mM NaCl, 10 mM EDTA, 5 mM EGTA, 1% TritonX-100™, 0.5% Igepal CA-630, 0.025% NaN3 and protease inhibitor cocktail (Sigma™). Cell debris was removed by centrifugation at 20,000×g for 10 minutes. The protein concentration in supernatant was determined using the MicroBCA™ method (Pierce™, Rockford, Ill.). Proteins in supernatant were mixed with protein sample loading buffer (final concentration: 60 mM Tris-HCl (pH 6.80), 2% SDS, 10% glycerol, 1.5% β-mercaptoethanol, 0.002% bromophenol blue) and size fractioned by 10% of SDS-polyacrylamide gel. After proteins were transferred onto nitrocellulose membrane by iBlot™ (Invitrogen Life Technologies™), non-specific binding were blocked with phosphate buffer saline twenty 20 (PBS-T) containing 5% skim milk for 1 hour. The membrane was then incubated with primary antibody overnight. After incubation with a secondary antibody for 1 hour, protein bands were visualized by an enhanced chemiluminescence (ECL™) detection system (Santa Cruz Biotechnology™, Santa Cruz, Calif.). […]

[3] = 50 μg in 0.1 ml CMC gel daily for three weeks
[4] = topical, versus no treatment or gel alone

In the case of `Nc1ccccc1C(=O)CC(N)C(=O)O` (racemic) [kynurenine], the “ERK1/2 activation (phospho-kinase array)” value (ERK1/2 [1]) was “activated”, the “collagen content (Massons' trichrome staining)” value (rabbit ear wounds; [3]) was “significant reduction” and the “hydroxyproline content (index for tissue collagen content)” value (rabbit ear wounds; [3]) was “significant lower”. The “average scar elevation index (SEI)” value (rabbit ear wounds; 50 μg in 0.1 ml CMC gel daily for three weeks, n=8, vehicle 1.978±0.442, untreated 2.098±0.324) was 1.172±0.156, the “scarring versus non-treated or vehicle-only wounds” value (rabbit ear wounds; 50 μg in 0.1 ml CMC gel daily, after three weeks) was “significantly less scarring” and the “wound closure versus untreated or CMC gel treated controls” value (rabbit ear wounds; 50 μg in 0.1 ml CMC gel daily, three weeks from day 8 post-wounding, data not shown) was “no significant difference”. The “expression of MMP-1 in rabbit ear skin (quantitative RT-PCR)” value (rabbit ear wounds; [4]) was “increased”, the “expression of type-1 α1 collagen in rabbit ear skin (quantitative RT-PCR)” value (rabbit ear wounds; [4]) was “decreased” and the “time of peak ERK1/2 activation” value (ERK1/2 [2]) was 8 h. For the same compound, the ERK1/2 phosphorylation (ERK1/2 [2]; different times) was “phosphorylated”.
